Data set [1] concerns C3H/10T½ cells. The experiment in a line: Effect of proteins on anti-apoptotic activity of soy LPA, C3H/10T½ cell assay. The format is cell-based. Conditions: for Protein + 10 μg/mL Soy LPA, percent cells saved from apoptosis: 1:10 soy-LPA to protein (weight:weight), 24 h serum deprivation; for enhancement of the anti-apoptotic activity of LPA: protein added together with soy-LPA. The method, then: Soy derived LPA (soy-LPA) (Avanti® Polar Lipids, Inc., Alabaster, Ala.) was stored in an organic solution and was dried immediately prior to assay using a Speed Vac (Savant Instruments, Hicksville, N.Y.). Tested proteins were resuspended at 10 mg/mL in a bicarbonate buffered saline/EDTA solution (50 mM NH4HCO3, 104 mM NaCl, 250 μM EDTA) prior to being added to dried soy-LPA at a 1:10 soy-LPA to protein (weight:weight) ratio. The mixture was then sonicated for 5 minutes using a high power 80 Watt sonication bath (Laboratory Supplies Co., Hicksville, N.Y.). Following sonication, concentrated LPA/protein mixtures were left standing for 15 minutes at room temperature prior to dilution in cell culture assay media.
The effect of various proteins on the ability of LPA to protect serum-starved cells from apoptotic death was measured using the C3H/10T½ cell assay, performed as described in Example 2, above. Log phase cells were seeded in 60 mm Petri dishes at 175-350 cells per cm^2 and maintained in Basal Medium Eagle (BME) supplemented with 10% fetal calf serum (Hyclone, Logan, Utah). At time zero, serum containing media was replaced with sterile filtered BME containing the LPA/protein mixture to be tested. After 24 hours of treatment, serum deprived release (SDR) cells (the apoptotic cell population) and adherent (ADH) cells were separated and counted using an electronic cell counter (Coulter Corporation, Hialea, Fla.). SDR cells were counted with the lower threshold setting at 6.3 μm and were defined as the apoptotic cells dying in response to cultivation in serum-free-media. Approximately 95% of the SDR cells are confirmed to be apoptotic as previously shown by size, ultrastructure and DNA fragmentation analysis. Adherent cells were removed by treatment with a Hanks' balanced salt solution containing 0.05% trypsin and 0.53 mM EDTA and were counted with the lower threshold setting at 11.01 μm. All samples were tested in triplicate and serum-deprived controls (BME only) were assayed at both the beginning and end of each experiment.
The effects of various proteins alone or in combination with LPA are expressed as percent cells saved from apoptosis. When C3H10T½ cells were treated with 10 μg/mL soy LPA without protein, 8.0% of the cells were saved. The degree of protection from apoptosis afforded by protein alone, added to the medium at a concentration of 0.1% (wt/vol.), varied from 0.9% to 27.7% of cells saved from apoptosis. An unusually high percentage of cells were protected from serum-starvation-induced apoptosis by casein. This value may be artificially high, as casein preparations have been known to contain growth factors, including insulin-like growth factors (IGF) IGF1 and IGF2. IGF2 is a mitogen that can mask the serum deprivation-induced apoptotic response in these cells.

A short description of data set [2]: Electrophoresis radiobinding assay on native polyacrylamide gel. Conditions: 1 nM labeled 18:1-LPA/45 μg protein, 37° C., 60 minutes. The format is binding. The protocol: Electrophoresis radiobinding assay. Proteins were analyzed on native polyacrylamide gels following incubation with ^3H-labeled 18:1-LPA. ^3H-labeled lysophosphatidic acid (1-oleyl) (DuPont NEN Products, Boston, Mass.) was added to tested proteins at 1 nM labeled 18:1-LPA/45 μg protein. Mixtures were incubated in a bicarbonate buffered saline/EDTA solution at 37° C. for 60 minutes. Incubated samples were mixed with native gel sample buffer (312 mM Tris pH 6.8, 50% glycerol, 0.05% bromophenol blue) and loaded entirely onto an 8% discontinuous native polyacrylamide gel. Following electrophoresis, proteins were fixed into the gels using an aqueous solution consisting of glacial acetic acid, 10% (vol/vol) and methanol 30% (vol./vol.) solution. Fixed gels were then incubated for 60 minutes in autoradiography enhancer (EN^3HANCE, DuPont NEN Products, Boston, Mass.), and dried onto 3M chromatography paper (Whatman, Clifton, N.J.) and exposed to autoradiography film (X-Omat, Kodak, Rochester, N.Y.) for 72 hours at −80° C.

Data set [3] in a line: Size shift assay on Superdex S75 column. The format is binding. Conditions: soy LPA with 0.5 μCi ^3H-labeled 18:1-LPA, with test protein. The method, then:
Size shift assay. Size analysis of LPA both with and without protein was performed using a Superdex® S75 column (Pharmacia Biotech, Uppsala, Sweden). Soy LPA was combined in a chloroform solution with 0.5 μCi ^3H-labeled 18:1-LPA (DuPont NEN Products, Boston, Mass.), dried under vacuum and resuspended by sonication in a buffered solution (50 mM ammonium bicarbonate, 154 mM sodium chloride, pH 8.0) in the presence or absence of test protein. The ammonium bicarbonate/sodium chloride solution was used as the mobile phase at a flow rate of 1 ml/min. One-minute fractions were collected for 30 minutes following sample injection. Fractions were counted in scintillant solution using a liquid scintillation counter (Beckman Instruments, Irvine, Calif.). Calibration was performed using a standard solution containing purified proteins (BioRad, Hercules, Calif.).

For data set [4], the system named is C3H/10T½ cells. The experiment in a line: C3H/10T½ serum deprivation anti-apoptotic activity assay. The format is cell-based. Particulars: for activity compared with lysophosphatidic acid: summary of Table 3; for Maximum effect relative to 18:1 LPA: LPA alone, 24 h serum deprivation, 18:1 LPA = 100%. An excerpt:
In order to determine the apoptotic activity of the claimed invention, the following method of analysis was used. The-cell assay is described in detail in U.S. Pat. Nos. 5,637,486, 5,620,888, and 5,681,703, and Tomei et al. (1993) Proc Natl. Acad. Sci. 90:853-857. Briefly, mouse fibroblast C3H/10T½ cells (clone 8) were obtained from ATCC (Rockville, Md.) and were maintained in exponential growth phase in which the cell cycle is randomly distributed and no cells are arrested in G0, and in quiescence. Exponential growth phase was assured by seeding at 2000 cells per 1 ml (5 ml for a 60 mm culture plate) five days prior to the beginning of the experiment. Assays were performed on cells only up to passage 15. At T=0, cultures were transferred to serum-free medium, as an apoptosis stimulus, and seed extracts were added. Controls included 10-7 and 5×10^-8 M 12-O-tetradecanoyl phorbol-13-acetate (TPA) to ensure the responsiveness of the cell culture. The samples were added to serum free medium and sterile filtered prior to addition to the cultures. Assays were performed in triplicate or quadruplicate. Analyses of the cell responses were made between 18 and 28 hours of serum deprivation. Two assays were performed on each cell culture plate consisting of differential cell counts.
1. All non-adherent or loosely adherent cells were removed from the culture dish and counted by appropriate techniques, typically counting by electronic particle counting instrument. These are the apoptotic cells, the serum deprived released cells (SDR), released by the action of cultivation in serum-free medium. Approximately 95% of these released cells are apoptotic as shown by both ultrastructure analysis and DNA fragmentation analysis.
2. The remaining adherent cells (ADH) were exposed to a buffered, typically pH 7.3, balanced salt solution such as Hanks Balanced Salt Solution without calcium and magnesium salts containing 0.05% trypsin and 0.53 mM ethylene diaminetetraacetic acid (EDTA). Each culture was incubated at either room temperature or 37° C. on a rocking platform to ensure uniform distribution of the trypsin reagent over the culture surface. After a standardized period of time, typically 10 minutes, the released cells were removed from each culture dish and measured by the same means as described above, typically electronic particle counting. This ADH cell count is comprised of both trypsin resistant and trypsin sensitive cells as described in U.S. Pat. Nos. 5,637,486, 5,620,888, and 5,681,703.
Anti-apoptotic activity is expressed in the following examples as the calculated concentration of material (μg/ml of media) required to save 50% of the cells released on serum free treatment.
The ability of 18:1-LPA and other LPAs to protect serum-starved cells from apoptotic death was measured using the C3H/10T½ cell assay, performed as described in Example 2. The effect of various compounds on the ability of lysophosphatidic acid to protect serum-starved cells from apoptotic death was also measured. Log phase cells were seeded in 60 mm Petri dishes at 175-350 cells per cm2 and maintained in Basal Medium Eagle (BME) supplemented with 10% Heat Inactivated Fetal Bovine Serum (HIFBS). On day 3 the cells were given fresh media. Treatment began on day 5 when the media containing serum was removed and replaced with the LPA mixture to be tested. After 24 hours of treatment, day 6, serum deprived released (SDR) cells (the apoptotic cell population) and adherent (ADH) cells were separated and counted using an electronic cell counter Coulter Corporation, Hialea, Fla.). SDR cells were counted with the lower threshold setting at 6.3 μm and were defined as the apoptotic cells dying in response to cultivation in serum free media. Approximately 95% of the SDR cells were confirmed to be apoptotic as previously shown by size, ultrastructure and DNA fragmentation analysis. […]

[5] abbreviates: compounds exhibiting toxicity, Table 3 column Concentration for Max Effect.

Results on 15 molecules are retold here after patent publication US6949529B2, “Compositions containing lysophosphotidic acids which inhibit apoptosis and uses thereof” (Sky High, LLC, priority 1997, dated 2005).

For the molecule Casein, the “Protein + 10 μg/mL Soy LPA, percent cells saved from apoptosis” value in the data set with C3H/10T½ cells [1] worked out at 84.3%.

On to Acyl Carrier Protein: source E. coli, for which, in the data set with C3H/10T½ cells [1], the “Protein + 10 μg/mL Soy LPA, percent cells saved from apoptosis” value was 36.2%. Also, in data set [2], the “Detectable Acrylamide Gel ^3H LPA Binding (+/−)” value was “did not yield detectable bands”. As for Cytochrome C: source bovine heart, in the data set with C3H/10T½ cells [1], the “Protein + 10 μg/mL Soy LPA, percent cells saved from apoptosis” value is listed as 54.6%. Further, in data set [3], the “3H-LPA Size Shift Analysis (+/−)” value was “LPA does not bind to this protein”. Regarding `CCCCCCCC/C=C\CCCCCCCCOCC(COP(O)(O)=S)OC` (racemic) [Compound 66, 3-O-Oleyl-2-O-methyl-rac-glycero-1-thiophosphate], the “activity compared with lysophosphatidic acid” value with C3H/10T½ cells [4] was “significantly higher than lysophosphatidic acid”. Consider `CCCCCCCC/C=C\CCCCCCCC(=O)NCCOP(=O)(OC)OC` [Compound 59, Dimethyl 2-amino-2-N-oleoyl-ethyl phosphate], for which the “Maximum effect relative to 18:1 LPA” value in the data set on C3H/10T½ cells [4] is listed as “Toxic”. For the same molecule, the “lowest concentration at which cytotoxic effects were observed” value (“lowest concentration” for short) in the data set with C3H/10T½ cells [4] (setting [5]) worked out at 30 µM. Consider `CCCCCCCC/C=C\CCCCCCCCOC(=O)C(COP(O)(O)=S)OC` (racemic) [Compound 78, Oleyl 1-thiophosphoryl-2-O-methyl-rac-glycerate], for which the “activity compared with lysophosphatidic acid” value in the data set with C3H/10T½ cells [4] is given as “significantly higher than lysophosphatidic acid”. Myelin Basic Protein: in the data set on C3H/10T½ cells [1], the “Protein + 10 μg/mL Soy LPA, percent cells saved from apoptosis” value came to 17.0% and the “enhancement of the anti-apoptotic activity of LPA” value is recorded as “did not enhance”. For the molecule “Dimethyl 3-amino-3-N-oleoyl-propyl phosphate [Compound 53]”, the “Maximum effect relative to 18:1 LPA” value in the data set with C3H/10T½ cells [4] is on record as “Toxic”. Besides, the “lowest concentration” value in the data set on C3H/10T½ cells [4] (setting [5]) came out at 100 µM. For `CCCCCCCC/C=C\CCCCCCCC(=O)OCC(COP(O)(O)=S)OC` (racemic) [Compound 48, 3-O-Oleoyl-2-O-methyl-rac-glycero-1-thiophosphate], the “activity compared with lysophosphatidic acid” value with C3H/10T½ cells [4] is “significantly higher than lysophosphatidic acid”. As to `CCCCCCCCCCCCCCOCC(O)COP(=O)(O)O` (racemic) [Compound 4, 3-O-Tetradecyl-rac-glycero-1-phosphate], in the data set on C3H/10T½ cells [4], the “Maximum effect relative to 18:1 LPA” value is “Toxic”. Besides, the “lowest concentration” value in the data set with C3H/10T½ cells [4] (mouse, 24 h) amounted to 10 µM. For `CCCCCCCCCCCCCCOCC1CO1` (stereo not shown) [Compound 8, 1-O-Tetradecyl-glycidol], the “Maximum effect relative to 18:1 LPA” value with C3H/10T½ cells [4] is “Toxic”. Besides, the “lowest concentration” value in the data set on C3H/10T½ cells [4] (setting [5]) amounted to 30 µM.

With `CCCCCCCCCCCCCCOCC(O)COP(=O)(OC)OC` (racemic) [Compound 3, Dimethyl 3-O-tetradecyl-rac-glycero-1-phosphate], the “Maximum effect relative to 18:1 LPA” value in the data set with C3H/10T½ cells [4] is on record as “Toxic”. Further, the “lowest concentration” value with C3H/10T½ cells [4] (setting [5]) is 30 µM. Regarding “Phosphatidylserine [Phosphatidylserine (PS), reference compound]”, the “toxicity to serum-deprived cells” value in the data set with C3H/10T½ cells [4] (PS alone (FIG. 2)) is “slightly toxic”.

B1: Myoglobin: source horse heart (protein, UniProt P68082 2-154, looked up)
Myoglobin: GLSDGEWQQVLNVWGKVEADIAGHGQEVLIRLFTGHPETLEKFDKFKHLKTEAEMKASEDLKKHGTVVLTALGGILKKKGHHEAELKPLAQSHATKHKIPIKYLEFISDAIIHVLHSKHPGDFGADAQGAMTKALELFRNDIAAKYKELGFQG
Take B1: the “Protein + 10 μg/mL Soy LPA, percent cells saved from apoptosis” value with C3H/10T½ cells [1] is 27.8%.

B2: Ovalbumin: source chicken egg (protein, UniProt P01012 2-386, looked up)
Ovalbumin: GSIGAASMEFCFDVFKELKVHHANENIFYCPIAIMSALAMVYLGAKDSTRTQINKVVRFDKLPGFGDSIEAQCGTSVNVHSSLRDILNQITKPNDVYSFSLASRLYAEERYPILPEYLQCVKELYRGGLEPINFQTAADQARELINSWVESQTNGIIRNVLQPSSVDSQTAMVLVNAIVFKGLWEKAFKDEDTQAMPFRVTEQESKPVQMMYQIGLFRVASMASEKMKILELPFASGTMSMLVLLPDEVSGLEQLESIINFEKLTEWTSSNVMEERKIKVYLPRMKMEEKYNLTSVLMAMGITDVFSSSANLSGISSAESLKISQAVHAAHAEINEAGREVVGSAEAGVDAASVSEEFRADHPFLFCIKHIATNAVLFFGRCVSP
Consider B2, for which, in the data set on C3H/10T½ cells [1], the “Protein + 10 μg/mL Soy LPA, percent cells saved from apoptosis” value came to 15.1% and the “enhancement of the anti-apoptotic activity of LPA” value is “did not enhance”. Also, in data set [2], the “Detectable Acrylamide Gel ^3H LPA Binding (+/−)” value is “detectable band”.
